Results from patent publication US20260216347A1, “Substituted Imidazo-Based Compounds as Ligand Directed Degraders of IRAK3” (Celgene Corporation, priority 2022, published 2026).

Tests used:
IRAK3 [1] = biological target: T1, IRAK3 (Homo sapiens, UniProt Q9Y616); assay: IRAK endogenous HTRF degradation assay (Total-IRAK3 HTRF kit); assay type: cell-based; conditions: overnight incubation, lowest percentage of protein remaining
T1 construct: IRAK Endogenous HTRF Degradation Assay; endogenous in cells
T1 sequence (Q9Y616 1-596): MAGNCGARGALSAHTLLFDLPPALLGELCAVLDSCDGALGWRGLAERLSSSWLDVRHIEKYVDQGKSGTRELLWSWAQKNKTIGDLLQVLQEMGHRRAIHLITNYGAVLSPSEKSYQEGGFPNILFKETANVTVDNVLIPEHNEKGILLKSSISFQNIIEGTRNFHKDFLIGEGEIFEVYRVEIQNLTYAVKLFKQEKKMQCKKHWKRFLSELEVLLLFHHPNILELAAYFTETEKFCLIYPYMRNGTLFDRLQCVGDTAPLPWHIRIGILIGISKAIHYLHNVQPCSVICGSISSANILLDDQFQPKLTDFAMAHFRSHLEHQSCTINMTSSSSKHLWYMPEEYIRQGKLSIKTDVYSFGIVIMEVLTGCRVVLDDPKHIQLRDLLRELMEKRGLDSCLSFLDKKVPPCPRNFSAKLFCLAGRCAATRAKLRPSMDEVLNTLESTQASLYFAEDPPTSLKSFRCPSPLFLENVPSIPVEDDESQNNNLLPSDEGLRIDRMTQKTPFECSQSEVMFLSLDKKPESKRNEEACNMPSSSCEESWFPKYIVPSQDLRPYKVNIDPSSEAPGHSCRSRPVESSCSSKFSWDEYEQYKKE
Method: Example B2. IRAK Endogenous HTRF Degradation Assay
Cells (~50 k) were plated in Cisbio 96-well low volume white plates (Cisbio: cat #66PL96005). Compounds were dissolved in DMSO and a 3-fold serial dilution was performed using a TECAN D300E. Cells were incubated with the compound overnight. Total-IRAK3 HTRF kit from Cisbio was used for degradation analysis (Cisbio: 63ADK101PEH). Cryptate and D2 antibodies were diluted in Detection buffer as per manufacturers recommendation. Then 2 μL of each solution was added to 16 μL lysate. Buffer control (lysis buffer detection buffer), Cryptate control (lysis buffer+cryptate antibody+detection buffer), and Negative control (lysis buffer+cryptate antibody+D2 antibody) were made as per manufacturers recommendation. Post incubation with antibodies the HTRF signal was measured using a Perkin Elmer Envision reader and the HTRF signal was calculated using formula: (Emission at 665 nm/Emission at 615 nm)*10,000. All HTRF values were normalized to the average value of DMSO. The average value of the DMSO control wells were set to equal 100% of the relative IRAK3 protein levels. Normalized luminescence values were plotted on a graph as a function of compound concentration. Compound concentration was plotted on the x-axis and the corresponding normalized IRAK3 protein levels on the y-axis. The EC50 value (the half-maximum effective concentration) of a compound for the degradation of the IRAK3 was calculated using a four-parameter logistic model (sigmoidal dose-response model) (FIT=(A+{(B−A)/1+[(C/x)D]})) where C is the inflection point (EC50), D is the […], and A and B are the low and high limits of the fit, respectively). The Ymin was calculated by determining the lowest percentage of target protein remaining following compound treatment. Dmax was calculated from Ymin (% Dmax=100−Ymin).
Using these assays, IC50, Dmax, EC50, and DC50 values of the following compounds were determined. Dmax is defined as the maximum percent degradation achieved and DC50 is the concentration at which 50% degradation is achieved.

IRAK3 [2] = biological target: T1, IRAK3; assay: IRAK3 biochemical binding assay (LanthaScreen Eu Kinase Binding, TR-FRET)
Method in brief: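 TR-FRET tracer-displacement binding with 10 nM IRAK3, 2 nM Eu-anti-GST antibody and 10 nM tracer in 50 mM HEPES pH 7.4, MgCl2, 1 mM EGTA, 0.01% Brij-35. Compounds in 3-fold dilutions, 1 h at room temperature. 665/615 nm ratio gave % inhibition; IC50 and Hill slope from dose-response fit.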

IRAK3-ePL = biological target: T2, IRAK3-ePL (Homo sapiens, UniProt Q9Y616); assay: IRAK3-ePL overexpressing degradation assay (InCELL Hunter luminescence, dose response); assay type: cell-based; conditions: for IRAK3 ePL degradation Ymin: lowest percentage of target protein remaining following compound treatment; for DC50: read-out: IRAK3 ePL degradation EC50
T2 construct: expressed in transfected cells; host or cells: 293T CRBN OE/GSPT1 G575N KI cells, lentiviral transduction, puromycin selected
Method in brief: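 Lenti-X 293T CRBN/GSPT1 G575N cells stably expressing IRAK3-ePL (5,000/well) treated overnight at 37° C with 10-point 3-fold dilutions from 10 μM, 0.2% DMSO. InCELL Hunter luminescence, background subtracted using Ataluren wells and normalized to DMSO; EC50 from four-parameter logistic fit.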

| IRAK3 HTRF degradation Ymin (IRAK3 [1]) [%] | IC50 (IRAK3 [2]) [nM] | IRAK3 ePL degradation Ymin (IRAK3-ePL) [%] | DC50 (IRAK3-ePL) [nM] | Structure (SMILES) |
| --- | --- | --- | --- | --- |
| 14 | 7.6 | – | – | Cc1cc(-c2cnc(Nc3cnn([C@H]4CC[C@@H](CCN5CCN(c6ccc(C7CCC(=O)NC7=O)cc6)C[C@@H]5C)CC4)c3)c3nccn23)c(F)cc1F (stereo partly drawn) [Compound 27, 3-(4-((S)-4-(2-((cis)-4-(4-((5-(2,4-difluoro-5-methylphenyl)imidazo[1,2-a]pyrazin-8-yl)amino)-1H-pyrazol-1-yl)cyclohexyl)ethyl)-3-methylpiperazin-1-yl)phenyl) piperidine-2,6-dione] |
| 12 | 1.1 | – | – | Cc1cc(-c2cnc(Nc3cnn([C@H]4CCN(CCN5CCN(c6ccc(C7CCC(=O)NC7=O)cc6)CC5)[C@@H](C)C4)c3)c3nccn23)c(F)cc1F (stereo partly drawn) [Compound 26, 3-(4-(4-(2-((2S,4S)-4-(4-((5-(2,4-difluoro-5-methylphenyl)imdazo [1,2-a]pyrazin-8-yl)amino)-1H-pyrazol-1-yl)-2-methylpiperidin-1-yl)ethyl)piperazin-1-yl)phenyl) piperidine-2,6-dione] |
| 18 | 1.7 | – | – | COc1cc(N2CCN(CCN3CCC(n4cc(Nc5ncc(-c6cc(C)c(F)cc6F)n6ccnc56)cn4)CC3)CC2)ccc1C1CCC(=O)NC1=O (centres unmarked) [Compound 25, 3-(4-(4-(2-(4-(4-((5-(2,4-difluoro-5-methylphenyl)imdazo [1,2-a]pyrazin-8-yl)amino)-1H-pyrazol-1-yl)piperidin-1-yl)ethyl)piperazin-1-yl)-2-methoxyphenyl) piperidine-2,6-dione] |
| 20 | – | 41 | 18 | Cc1cc(-c2cnc(Nc3cnn(C4CCN(CCN5CCN(c6ccc(C7CCC(=O)NC7=O)cc6)CC5)CC4)c3)c3ncc(C)n23)c(F)cc1F (centres unmarked) [Compound 61, 3-(4-(4-(2-(4-(4-((5-(2,4-difluoro-5-methylphenyl)-3-methylimidazo[1,2-a]pyrazin-8-yl)amino)-1H-pyrazol-1-yl)piperidin-1-yl)ethyl)piperazin-1-yl)phenyl) piperidine-2,6-dione] |
| 25 | 4.6 | – | – | Cc1cc(-c2cnc(Nc3cnn(C4CCN(C(=O)CN5CCN(c6ccc7c(c6)C(=O)N(C6CCC(=O)NC6=O)C7=O)CC5)CC4)c3)c3nccn23)c(F)cc1F (centres unmarked) [Compound 24, 5-(4-(2-(4-(4-((5-(2,4-difluoro-5-methylphenyl)imidazo[1,2-a]pyrazin-8-yl)amino)-1H-pyrazol-1-yl)piperidin-1-yl)-2-oxoethyl)piperazin-1-y1)-2-(2,6-dioxopiperidin-3-yl)isoindoline-1,3-dione] |
| 14 | – | 24 | 0.51 | Cc1cc(-c2cnc(Nc3cnn([C@@H]4CCN(CCN5CCN(c6ccc(C7CCC(=O)NC7=O)cc6)CC5)[C@H](C)C4)c3)c3nccn23)c(F)cc1F (stereo partly drawn) [Compound 30, 3-(4-(4-(2-((2R,4R)-4-(4-((5-(2,4-difluoro-5-methylphenyl)imdazo [1,2-a]pyrazin-8-yl)amino)-1H-pyrazol-1-yl)-2-methylpiperidin-1-yl)ethyl)piperazin-1-yl)phenyl) piperidine-2,6-dione] |
| 64 | – | 84 | 1100 | Cc1cc(-c2cnc(Nc3cnn(C4CCN(CCN5CCN(c6ccc(C7CCC(=O)N(C)C7=O)cc6)CC5)CC4)c3)c3nccn23)c(F)cc1F (centres unmarked) [Compound 55, 3-(4-(4-(2-(4-(4-((5-(2,4-difluoro-5-methylphenyl)imdazo [1,2-a]pyrazin-8-yl)amino)-1H-pyrazol-1-yl)piperidin-1-yl)ethyl)piperazin-1-yl)phenyl)-1-methylpiperidine-2,6-dione] |
| 9.8 | – | 25 | 1.3 | Cc1cc(-c2cnc(Nc3cnn(C4CCN(CCN5CCN(c6ccc(C7CCC(=O)NC7=O)cc6)[C@H](C)C5)CC4)c3)c3nccn23)c(F)cc1F (stereo partly drawn) [Compound 50, 3-(4-((R)-4-(2-(4-(4-((5-(2,4-difluoro-5-methylphenyl)imdazo [1,2-a]pyrazin-8-yl)amino)-1H-pyrazol-1-yl)piperidin-1-yl)ethyl)-2-methylpiperazin-1-yl)phenyl) piperidine-2,6-dione] |
| 9.7 | – | 25 | 0.98 | Cc1cc(-c2cnc(Nc3cnn(C4CCN(CCN5[C@H](C)CN(c6ccc(C7CCC(=O)NC7=O)cc6)C[C@H]5C)CC4)c3)c3nccn23)c(F)cc1F (stereo partly drawn) [Compound 58, 3-(4-((3R,5R)-4-(2-(4-(4-((5-(2,4-difluoro-5-methylphenyl)imdazo [1,2-a]pyrazin-8-yl)amino)-1H-pyrazol-1-yl)piperidin-1-yl)ethyl)-3,5-dimethylpiperazin-1-yl)phenyl) piperidine-2,6-dione] |
